Patent US20200170975A1 (Strongbridge Dublin Limited, priority 2018, published 2020)
Read-outs that look alike come from different tables or passages of the source.

Tests used:
MATE1 = molecular target: T1, MATE1 (Homo sapiens, UniProt Q96FL8); conditions: for % control / Background corrected uptake rate: HEK293 cells; for Uptake, MATE1 (Average ± SD): MATE1 HEK293 cells; for Uptake, Control (Average ± SD): control HEK293 cells
T1 sequence (Q96FL8 1-570): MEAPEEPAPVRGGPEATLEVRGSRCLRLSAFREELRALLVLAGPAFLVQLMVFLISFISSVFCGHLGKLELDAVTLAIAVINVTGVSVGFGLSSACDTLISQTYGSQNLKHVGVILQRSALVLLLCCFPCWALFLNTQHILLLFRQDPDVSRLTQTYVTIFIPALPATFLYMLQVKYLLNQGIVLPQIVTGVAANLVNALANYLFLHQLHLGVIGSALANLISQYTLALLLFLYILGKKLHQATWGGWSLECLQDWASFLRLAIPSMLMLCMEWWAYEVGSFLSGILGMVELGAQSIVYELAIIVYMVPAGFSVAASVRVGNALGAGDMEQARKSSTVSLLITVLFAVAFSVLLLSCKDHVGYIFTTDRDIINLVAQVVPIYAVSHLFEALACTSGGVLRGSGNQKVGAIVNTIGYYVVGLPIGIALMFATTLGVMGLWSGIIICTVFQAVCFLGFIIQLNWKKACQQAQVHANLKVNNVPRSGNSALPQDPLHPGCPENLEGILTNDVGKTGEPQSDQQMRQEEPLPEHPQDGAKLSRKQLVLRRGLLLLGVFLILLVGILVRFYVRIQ
Procedure: (§1) [^14C]-Metformin (1 mM) was provided as a solid and was prepared in Hank's balanced salt solution (HBSS).
(§2) Cells were plated onto standard 24-well tissue culture plates in cell culture medium 1 to 3 days before the experiment. MATE1 and MATE2-K and control cells were incubated with butyric acid (10 mM) for 24 hours before the experiment to inhibit suppression of the transporter.

MATE2-K = MATE2-K (Homo sapiens, UniProt Q86VL8); conditions: for Uptake, MATE2-K (Average ± SD): MATE2-K HEK293 cells; for Uptake, MATE2-K (Average ± SD) / % control / Background corrected uptake rate / Uptake, Control (Average ± SD): [14C]-Metformin 10 μM; for Uptake, Control (Average ± SD): control HEK293 cells
Sequence of MATE2-K (Q86VL8 1-566 isoform Q86VL8-3): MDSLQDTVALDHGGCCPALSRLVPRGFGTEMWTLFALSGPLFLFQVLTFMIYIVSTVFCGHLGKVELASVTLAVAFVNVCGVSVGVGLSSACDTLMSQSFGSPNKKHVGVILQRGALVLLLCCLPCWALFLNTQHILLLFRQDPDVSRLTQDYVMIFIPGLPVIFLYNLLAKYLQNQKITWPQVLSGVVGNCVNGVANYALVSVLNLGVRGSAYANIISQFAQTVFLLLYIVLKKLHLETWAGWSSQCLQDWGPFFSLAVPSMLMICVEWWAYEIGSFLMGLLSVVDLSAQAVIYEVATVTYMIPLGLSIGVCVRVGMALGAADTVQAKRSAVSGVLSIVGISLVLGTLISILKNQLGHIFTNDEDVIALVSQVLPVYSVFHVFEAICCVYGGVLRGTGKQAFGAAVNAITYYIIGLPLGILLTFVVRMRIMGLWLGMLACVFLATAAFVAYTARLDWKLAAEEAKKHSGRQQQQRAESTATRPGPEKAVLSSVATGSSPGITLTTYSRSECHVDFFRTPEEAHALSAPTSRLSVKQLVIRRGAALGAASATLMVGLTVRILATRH
Procedure: as §1, §2

P-gp [1] = molecular target: T2, P-gp (Homo sapiens, UniProt P08183)
T2 sequence (P08183 whole entry): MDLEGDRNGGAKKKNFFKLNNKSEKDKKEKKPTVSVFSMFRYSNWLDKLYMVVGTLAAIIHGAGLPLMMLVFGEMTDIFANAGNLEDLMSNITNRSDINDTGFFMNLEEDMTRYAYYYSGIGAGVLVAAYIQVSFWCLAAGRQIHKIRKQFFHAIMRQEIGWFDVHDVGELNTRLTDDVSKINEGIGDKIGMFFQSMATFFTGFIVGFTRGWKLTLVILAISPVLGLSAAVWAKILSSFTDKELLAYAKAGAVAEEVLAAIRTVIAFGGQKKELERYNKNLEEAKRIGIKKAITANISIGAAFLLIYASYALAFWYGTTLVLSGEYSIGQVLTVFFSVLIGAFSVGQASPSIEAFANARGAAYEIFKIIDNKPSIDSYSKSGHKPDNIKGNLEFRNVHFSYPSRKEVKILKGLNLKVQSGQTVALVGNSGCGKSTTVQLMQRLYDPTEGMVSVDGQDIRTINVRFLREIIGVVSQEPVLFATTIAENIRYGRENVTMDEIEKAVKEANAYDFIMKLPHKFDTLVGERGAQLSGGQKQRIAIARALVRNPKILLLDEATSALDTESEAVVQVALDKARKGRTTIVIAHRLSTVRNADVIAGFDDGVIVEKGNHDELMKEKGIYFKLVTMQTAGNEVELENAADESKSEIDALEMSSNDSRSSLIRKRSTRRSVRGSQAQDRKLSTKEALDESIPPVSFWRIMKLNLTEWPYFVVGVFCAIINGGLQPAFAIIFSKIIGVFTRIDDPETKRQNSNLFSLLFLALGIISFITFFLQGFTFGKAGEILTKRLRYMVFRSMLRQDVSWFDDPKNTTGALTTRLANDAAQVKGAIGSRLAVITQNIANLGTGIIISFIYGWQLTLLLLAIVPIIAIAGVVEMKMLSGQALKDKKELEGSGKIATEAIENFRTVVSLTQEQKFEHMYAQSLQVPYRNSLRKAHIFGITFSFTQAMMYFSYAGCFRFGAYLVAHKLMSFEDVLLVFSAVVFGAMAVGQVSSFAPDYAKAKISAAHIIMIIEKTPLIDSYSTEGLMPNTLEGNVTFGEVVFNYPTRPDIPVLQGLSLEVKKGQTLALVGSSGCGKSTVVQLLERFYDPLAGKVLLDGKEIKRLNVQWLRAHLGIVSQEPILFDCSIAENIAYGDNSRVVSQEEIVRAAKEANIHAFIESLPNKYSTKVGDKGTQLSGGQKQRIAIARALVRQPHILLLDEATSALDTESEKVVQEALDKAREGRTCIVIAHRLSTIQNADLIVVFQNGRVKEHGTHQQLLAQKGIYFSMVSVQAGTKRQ

OCT1 = molecular target: T3, OCT1 (Homo sapiens, UniProt O15245)
T3 sequence (O15245 1-554): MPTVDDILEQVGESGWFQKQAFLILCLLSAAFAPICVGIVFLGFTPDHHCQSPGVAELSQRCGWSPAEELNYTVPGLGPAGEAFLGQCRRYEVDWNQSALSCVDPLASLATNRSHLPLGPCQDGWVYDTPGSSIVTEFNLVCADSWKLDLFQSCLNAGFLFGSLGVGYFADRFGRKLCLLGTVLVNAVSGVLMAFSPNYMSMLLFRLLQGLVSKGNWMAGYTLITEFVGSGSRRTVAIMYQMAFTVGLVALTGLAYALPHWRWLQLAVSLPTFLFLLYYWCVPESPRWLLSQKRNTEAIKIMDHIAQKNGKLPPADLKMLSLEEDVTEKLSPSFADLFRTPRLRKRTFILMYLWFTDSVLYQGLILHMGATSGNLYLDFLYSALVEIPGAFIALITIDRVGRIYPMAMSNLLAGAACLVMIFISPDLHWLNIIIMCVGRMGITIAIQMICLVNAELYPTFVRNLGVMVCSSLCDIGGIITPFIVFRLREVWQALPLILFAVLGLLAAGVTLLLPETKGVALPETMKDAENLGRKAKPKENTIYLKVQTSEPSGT

P-gp [2] = molecular target: T2, P-gp; conditions: 120 min

NS(=O)(=O)c1cc(Cl)c(Cl)c(S(N)(=O)=O)c1 [Dichlorphenamide, 4,5-dichloro-1,3-benzenedisulfonamide]
IC50 (MATE1): > 1000 µM | % control (MATE1; inhibitor 1 μm): 104% | Background corrected uptake rate (MATE1; inhibitor 1 μm): 85.8 pmol/mg/min | % control (MATE1; inhibitor 3 μm): 95.2% | Background corrected uptake rate (MATE1; inhibitor 3 μm): 78.8 pmol/mg/min | % control (MATE1; inhibitor 10 μm): 96.4% | Background corrected uptake rate (MATE1; inhibitor 10 μm): 79.8 pmol/mg/min | % control (MATE1; inhibitor 30 μm): 103% | Background corrected uptake rate (MATE1; inhibitor 30 μm): 85.0 pmol/mg/min | % control (MATE1; inhibitor 100 μm): 99.8% | Background corrected uptake rate (MATE1; inhibitor 100 μm): 82.6 pmol/mg/min | % control (MATE1; inhibitor 300 μm): 94.7% | Background corrected uptake rate (MATE1; inhibitor 300 μm): 78.4 pmol/mg/min | % control (MATE1; inhibitor 1000 μm): 90.3% | Background corrected uptake rate (MATE1; inhibitor 1000 μm): 74.7 pmol/mg/min | Uptake, MATE1 (Average ± SD) (MATE1; inhibitor 1 μm): 436 ± 23 pmol/mg protein | Uptake, MATE1 (Average ± SD) (MATE1; inhibitor 3 μm): 401 ± 7 pmol/mg protein | Uptake, MATE1 (Average ± SD) (MATE1; inhibitor 10 μm): 406 ± 12 pmol/mg protein | Uptake, MATE1 (Average ± SD) (MATE1; inhibitor 30 μm): 432 ± 10 pmol/mg protein | Uptake, MATE1 (Average ± SD) (MATE1; inhibitor 100 μm): 421 ± 17 pmol/mg protein | Uptake, MATE1 (Average ± SD) (MATE1; inhibitor 300 μm): 398 ± 17 pmol/mg protein | Uptake, MATE1 (Average ± SD) (MATE1; inhibitor 1000 μm): 379 ± 13 pmol/mg protein | Uptake, Control (Average ± SD) (MATE1; inhibitor 1 μm): 6.66 ± 1.31 pmol/mg protein | Uptake, Control (Average ± SD) (MATE1; inhibitor 3 μm): 6.75 ± 1.65 pmol/mg protein | Uptake, Control (Average ± SD) (MATE1; inhibitor 10 μm): 7.43 ± 1.34 pmol/mg protein | Uptake, Control (Average ± SD) (MATE1; inhibitor 30 μm): 6.79 ± 0.89 pmol/mg protein | Uptake, Control (Average ± SD) (MATE1; inhibitor 100 μm): 7.52 ± 0.96 pmol/mg protein | Uptake, Control (Average ± SD) (MATE1; inhibitor 300 μm): 5.56 ± 0.16 pmol/mg protein | Uptake, Control (Average ± SD) (MATE1; inhibitor 1000 μm): 5.52 ± 0.21 pmol/mg protein | IC50 (MATE1; human, pH 8.5): > 1000 µM | IC50 (MATE2-K): > 1000 µM | Uptake, MATE2-K (Average ± SD) (MATE2-K; inhibitor 1 μM): 149 ± 29 pmol/mg protein | Uptake, MATE2-K (Average ± SD) (MATE2-K; inhibitor 3 μM): 159 ± 19 pmol/mg protein | Uptake, MATE2-K (Average ± SD) (MATE2-K; inhibitor 10 μM): 113 ± 8 pmol/mg protein | Uptake, MATE2-K (Average ± SD) (MATE2-K; inhibitor 30 μM): 124 ± 36 pmol/mg protein | Uptake, MATE2-K (Average ± SD) (MATE2-K; inhibitor 100 μM): 137 ± 15 pmol/mg protein | Uptake, MATE2-K (Average ± SD) (MATE2-K; inhibitor 300 μM): 166 ± 16 pmol/mg protein | Uptake, MATE2-K (Average ± SD) (MATE2-K; inhibitor 1000 μM): 106 ± 29 pmol/mg protein | % control (MATE2-K; inhibitor 1 μM): 101% | Background corrected uptake rate (MATE2-K; inhibitor 1 μM): 28.0 pmol/mg/min | % control (MATE2-K; inhibitor 3 μM): 108% | Background corrected uptake rate (MATE2-K; inhibitor 3 μM): 29.9 pmol/mg/min | % control (MATE2-K; inhibitor 10 μM): 76.1% | Background corrected uptake rate (MATE2-K; inhibitor 10 μM): 21.0 pmol/mg/min | % control (MATE2-K; inhibitor 30 μM): 83.7% | Background corrected uptake rate (MATE2-K; inhibitor 30 μM): 23.1 pmol/mg/min | % control (MATE2-K; inhibitor 100 μM): 92.4% | Background corrected uptake rate (MATE2-K; inhibitor 100 μM): 25.5 pmol/mg/min | % control (MATE2-K; inhibitor 300 μM): 114% | Background corrected uptake rate (MATE2-K; inhibitor 300 μM): 31.4 pmol/mg/min | % control (MATE2-K; inhibitor 1000 μM): 73.2% | Background corrected uptake rate (MATE2-K; inhibitor 1000 μM): 20.2 pmol/mg/min | Uptake, Control (Average ± SD) (MATE2-K; inhibitor 1 μM): 9.21 ± 0.93 pmol/mg protein | Uptake, Control (Average ± SD) (MATE2-K; inhibitor 3 μM): 9.44 ± 2.27 pmol/mg protein | Uptake, Control (Average ± SD) (MATE2-K; inhibitor 10 μM): 8.28 ± 1.46 pmol/mg protein | Uptake, Control (Average ± SD) (MATE2-K; inhibitor 30 μM): 8.51 ± 1.05 pmol/mg protein | Uptake, Control (Average ± SD) (MATE2-K; inhibitor 100 μM): 9.21 ± 1.52 pmol/mg protein | Uptake, Control (Average ± SD) (MATE2-K; inhibitor 300 μM): 8.86 ± 0.93 pmol/mg protein | Uptake, Control (Average ± SD) (MATE2-K; inhibitor 1000 μM): 5.13 ± 0.40 pmol/mg protein | IC50 (MATE2-K; human, pH 8.5): > 1000 µM | IC50 (P-gp [1]): > 1000 µM | IC50 (OCT1): > 1000 µM | % control (P-gp [2]; 3 μM): 74.0% | % control (P-gp [2]; 10 μM): 98.2% | % control (P-gp [2]; 30 μM): 89.8% | % control (P-gp [2]; 100 μM): 79.2% | % control (P-gp [2]; 300 μM): 275% | % control (P-gp [2]; 1000 μM): 127%
